Data published in patent US7834023B2 (Portola Pharmaceuticals, Inc., priority 2006, dated 2010).

Biological target: T1, P2Y12 receptor (Homo sapiens, UniProt Q9H244)
T1 construct: endogenous in cells; host or cells: human platelets (outdated from blood banks or fresh), apyrase-washed, whole
Assay: platelet ADP receptor binding assay (ARB): inhibition of [3H]2-MeS-ADP binding to platelets
Settings: [3H]2-MeS-ADP binding to apyrase-washed human platelets
Experimental: 1. The Ability of Candidate Molecules to Inhibit the Binding of [^3H]2-MeS-ADP to the […] Receptor on Platelets was Determined Using a Radioligand Binding Assay.
Utilizing this assay the potency of inhibition of such compounds with respect to [^3H]2-MeS-ADP binding to whole platelets is determined. Under the conditions described in II (3) below, the binding of [^3H]2-MeS-ADP is solely due to the interaction of this ligand with the P2Y12 receptor, in that all the specific binding measured in this assay is competable with a P2Y12 antagonist (i.e., the specific binding is reduced to background levels by competition with an excess of P2Y12 antagonist, with no competition of binding when a P2Y1 antagonist is pre-incubated with the platelet preparation). [^3H]2-MeS-ADP binding experiments are routinely performed with outdated human platelets collected by standard procedures at hospital blood banks. Apyrase-washed outdated platelets are prepared as follows (all steps at room temperature, if not indicated otherwise):
Outdated platelet suspensions are diluted with 1 volume of CGS and platelets pelleted by centrifugation at 1900×g for 45 minutes. Platelet pellets are resuspended at 3-6×10^9 platelets/ml in CGS containing 1 U/ml apyrase (grade V, Sigma, St. Louis, Mo.) and incubated for 15 minutes at 37° C. After centrifugation at 730×g for 20 minutes, pellets are resuspended in Hepes-Tyrode's buffer containing 0.1% BSA (Sigma, St. Louis, Mo.) at a concentration of 6.66×10^8 platelets/ml. Binding experiments are performed after >45 minutes resting of the platelets.
Alternatively, binding experiments are performed with fresh human platelets prepared as described in section I (Inhibition of ADP-Mediated Platelet Aggregation in vitro), except that platelets are resuspended in Hepes-Tyrode's buffer containing 0.1% BSA (Sigma, St. Louis, Mo.) at a concentration of 6.66×10^8 platelets/mil. Very similar results are obtained with fresh and outdated platelets.
A platelet ADP receptor binding assay (ARB) using the tritiated potent agonist ligand [^3H]2-MeS-ADP (Jantzen, H. M. et al. (1999) Thromb. Hemost. 81:111-117) has been adapted to the 96-well microtiter format. In an assay volume of 0.2 ml Hepes-Tyrode's buffer with 0.1% BSA and 0.6% DMSO, 1×10^8 apyrase-washed platelets are preincubated in 96-well flat bottom microtiter plates for 5 minutes with serial dilutions of test compounds before addition of 1 nM [^3H]2-MeS-ADP ([^3H]2-methylthioadenosine-5′-diphosphate, ammonium salt; specific activity 20-50 Ci/mmole, obtained by custom synthesis from Amersham Life Science, Inc., Arlington Heights, Ill., or NEN Life Science Products, Boston, Mass.). Total binding is determined in the absence of test compounds. Samples for nonspecific binding may contain 10 μM unlabelled 2-MeS-ADP (RBI, Natick, Mass.). After incubation for 15 minutes at room temperature, unbound radioligand is separated by rapid filtration and two washes with cold (4-8° C.) Binding Wash Buffer (10 mM Hepes pH 7.4, 138 mM NaCl) using a 96-well cell harvester (Minidisc 96, Skatron Instruments, Sterling, Va.) and 8×12 GF/C glassfiber filtermats (Printed Filtermat A, for 1450 Microbeta, Wallac Inc., Gaithersburg, Md.). The platelet-bound radioactivity on the filtermats is determined in a scintillation counter (Microbeta 1450, Wallac Inc., Gaithersburg, Md.). Specific binding is determined by subtraction of non-specific binding from total binding, and specific binding in the presence of test compounds is expressed as % of specific binding in the absence of test compound dilutions. IC50s were derived by non-linear regression analysis.

T1 sequence (Q9H244 whole entry): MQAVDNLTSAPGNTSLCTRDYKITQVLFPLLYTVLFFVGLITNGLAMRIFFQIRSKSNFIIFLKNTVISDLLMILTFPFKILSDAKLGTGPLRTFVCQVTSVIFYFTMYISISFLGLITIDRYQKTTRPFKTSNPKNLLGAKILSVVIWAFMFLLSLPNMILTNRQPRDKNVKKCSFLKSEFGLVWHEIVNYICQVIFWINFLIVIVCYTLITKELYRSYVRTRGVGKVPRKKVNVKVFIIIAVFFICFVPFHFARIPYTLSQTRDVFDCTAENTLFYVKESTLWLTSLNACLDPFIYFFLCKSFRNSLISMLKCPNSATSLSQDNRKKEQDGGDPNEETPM

Compound | IC50 [nM]
CNc1cc2[nH]c(=O)n(-c3ccc(CN(CC(=O)O)C(=O)c4ccc(Cl)s4)cc3)c(=O)c2cc1F [Compound 103, 2-(5-chloro-N-(4-(6-fluoro-7-(methylamino)-2,4-dioxo-1,2-dihydroquinazolin-3(4H)-yl)benzyl)thiophene-2-carboxamido)acetic acid] | > 500
CNc1cc2[nH]c(=O)n(-c3ccc(C(=O)NC(c4ccc(Cl)cc4)c4nnn[nH]4)cc3)c(=O)c2cc1F (stereo not shown) [Compound 12, N-((4-chlorophenyl)(1H-tetrazol-5-yl)methyl)-4-(6-fluoro-7-(methylamino)-2,4-dioxo-1,2-dihydroquinazolin-3(4H)-yl)benzamide] | > 500
O=C(NC(C(=O)O)c1cccs1)c1ccc(-n2ccc3ccccc3c2=O)cc1 (stereo not shown) [Compound 97, 2-(4-(1-oxoisoquinolin-2(1H)-yl)benzamido)-2-(thiophen-2-yl)acetic acid] | > 500
CNc1cc2[nH]c(=O)n(-c3ccc(C(=O)NC(C(=O)O)c4ccc(Cl)s4)c(OC)c3)c(=O)c2cc1F (stereo not shown) [Compound 42, 2-(5-chlorothiophen-2-yl)-2-(4-(6-fluoro-7-(methylamino)-2,4-dioxo-1,2-dihydroquinazolin-3(4H)-yl)-2-methoxybenzamido)acetic acid] | > 500
CNc1cc2c(cc1F)C(=O)N(c1ccc(C(=O)N(CCC(=O)O)Cc3ccc(Cl)s3)cc1)CO2 [Compound 86, 3-(N-((5-chlorothiophen-2-yl)methyl)-4-(6-fluoro-7-(methylamino)-4-oxo-2H-benzo[e][1,3]oxazin-3(4H)-yl)benzamido)propanoic acid] | > 500
CNc1cc2[nH]c(=O)n(-c3cccc(C(=O)NC(C(=O)O)c4ccc(Cl)s4)c3)c(=O)c2cc1F (stereo not shown) [Compound 111, 2-(5-chlorothiophen-2-yl)-2-(3-(6-fluoro-7-(methylamino)-2,4-dioxo-1,2-dihydroquinazolin-3(4H)-yl)benzamido)acetic acid] | > 500
O=C(NC(C(=O)O)c1ccc(Cl)s1)c1ccc(N2COc3cc(NCc4ccc(F)cc4)ccc3C2=O)cc1 (stereo not shown) [Compound 84, 2-(5-chlorothiophen-2-yl)-2-(4-(7-(4-fluorobenzylamino)-4-oxo-2H-benzo[e][1,3]oxazin-3(4H)-yl)benzamido)acetic acid] | > 500
O=C(NC(C(=O)O)c1ccc(Cl)s1)c1ccc(-n2cc(Br)c3ccccc3c2=O)cc1 (stereo not shown) [Compound 102, 2-(4-(4-bromo-1-oxoisoquinolin-2(1H)-yl)benzamido)-2-(5-chlorothiophen-2-yl)acetic acid] | > 500
CNc1cc2c(cc1F)C(=O)N(c1ccc(CC(=O)NC(C(=O)O)c3ccc(Cl)s3)cc1)CO2 (stereo not shown) [Compound 114, 2-(5-chlorothiophen-2-yl)-2-(2-(4-(6-fluoro-7-(methylamino)-4-oxo-2H-benzo[e][1,3]oxazin-3(4H)-yl)phenyl)acetamido)acetic acid] | > 500
NC(=O)c1cn(-c2ccc(C(=O)NC(C(=O)O)c3ccc(Cl)s3)cc2)c(=O)c2ccccc12 (stereo not shown) [Compound 99] | > 500
COc1ccc2c(=O)n(-c3ccc(C(=O)NC(C(=O)O)c4ccc(Cl)s4)cc3)ccc2c1 (stereo not shown) [Compound 101, 2-(5-chlorothiophen-2-yl)-2-(4-(6-methoxy-1-oxoisoquinolin-2(1H)-yl)benzamido)acetic acid] | > 500
COc1cc2ccn(-c3ccc(C(=O)NC(C(=O)O)c4ccc(Cl)s4)cc3)c(=O)c2cc1F (stereo not shown) [Compound 92, 2-(5-chlorothiophen-2-yl)-2-(4-(7-fluoro-6-methoxy-1-oxoisoquinolin-2(1H)-yl)benzamido)acetic acid] | > 500
CNc1cc2[nH]c(=O)n(-c3ccc(C(=O)NC(c4ccc(Cl)c(Cl)c4)c4nnn[nH]4)cc3)c(=O)c2cc1F (stereo not shown) [Compound 29, N-((3,4-dichlorophenyl)(1H-tetrazol-5-yl)methyl)-4-(6-fluoro-7-(methylamino)-2,4-dioxo-1,2-dihydroquinazolin-3(4H)-yl)benzamide] | > 500
CNc1cc2c(cc1F)C(=O)N(c1ccc(CC(=O)NC(C(=O)N(C)C)c3ccc(Cl)s3)cc1)CO2 (stereo not shown) [Compound 120, 2-(5-chlorothiophen-2-yl)-2-(2-(4-(6-fluoro-7-(methylamino)-4-oxo-2H-benzo[e][1,3]oxazin-3(4H)-yl)phenyl)acetamido)-N,N-dimethylacetamide] | > 500

Results, then the molecule that gave them:

IC50 [nM] | Compound
> 500 | CCc1ccc2c(c1)CCN(c1ccc(C(=O)NC(C(=O)O)c3ccc(Cl)s3)cc1)C2=O (stereo not shown) [Compound 119, 2-(5-chlorothiophen-2-yl)-2-(4-(6-ethyl-1-oxo-3,4-dihydroisoquinolin-2(1H)-yl)benzamido)acetic acid]
50 to 500 | CNc1cc2[nH]c(=O)n(-c3ccc(CNC(CC(=O)O)c4ccc(Cl)s4)cc3)c(=O)c2cc1F (stereo not shown) [Compound 104, 3-(5-chlorothiophen-2-yl)-3-(4-(6-fluoro-7-(methylamino)-2,4-dioxo-1,2-dihydroquinazolin-3(4H)-yl)benzylamino)propanoic acid]
50 to 500 | CCc1ccc2c(c1)OCN(c1ccc(C(=O)NC(C(=O)O)c3ccc(Cl)s3)cc1)C2=O (stereo not shown) [Compound 78, 2-(5-chlorothiophen-2-yl)-2-(4-(7-ethyl-4-oxo-2H-benzo[e][1,3]oxazin-3(4H)-yl)benzamido)acetic acid]
50 to 500 | CNc1cc2c(cc1F)C(=O)N(c1ccc(C(=O)NC(Cc3cccs3)C(=O)O)cc1)CO2 (stereo not shown) [Compound 64, 2-(4-(6-fluoro-7-(methylamino)-4-oxo-2H-benzo[e][1,3]oxazin-3(4H)-yl)benzamido)-3-(thiophen-2-yl)propanoic acid]
50 to 500 | CNc1cc2[nH]c(=O)n(-c3ccc(C(=O)NC(C(=O)O)c4ccc(Cl)s4)s3)c(=O)c2cc1F (stereo not shown) [Compound 112, 2-(5-chlorothiophen-2-yl)-2-(5-(6-fluoro-7-(methylamino)-2,4-dioxo-1,2-dihydroquinazolin-3(4H)-yl)thiophene-2-carboxamido)acetic acid]
50 to 500 | CNc1cc2cnn(-c3ccc(C(=O)NC(C(=O)O)c4ccc(Cl)s4)cc3)c(=O)c2cc1F (stereo not shown) [Compound 117, 2-(5-chlorothiophen-2-yl)-2-(4-(7-fluoro-6-(methylamino)-1-oxophthalazin-2(1H)-yl)benzamido)acetic acid]
50 to 500 | CNc1cc2[nH]c(=O)n(-c3ccc(C(=O)NC(C(=O)O)c4cccc(Cl)c4)cc3)c(=O)c2cc1F (stereo not shown) [Compound 15, 2-(3-chlorophenyl)-2-(4-(6-fluoro-7-(methylamino)-2,4-dioxo-1,2-dihydroquinazolin-3(4H)-yl)benzamido)acetic acid]
50 to 500 | CNc1ccc2c(=O)n(-c3ccc(C(=O)NC(C(=O)O)c4ccc(Cl)s4)cc3)c(=O)[nH]c2c1 (stereo not shown) [Compound 20, 2-(5-chlorothiophen-2-yl)-2-(4-(7-(methylamino)-2,4-dioxo-1,2-dihydroquinazolin-3(4H)-yl)benzamido)acetic acid]
50 to 500 | CNc1cc2c(cc1F)C(=O)N(c1ccc(C(=O)N[C@@H](Cc3ccccc3)C(=O)O)cc1)CO2 [Compound 60, (S)-2-(4-(6-fluoro-7-(methylamino)-4-oxo-2H-benzo[e][1,3]oxazin-3(4H)-yl)benzamido)-3-phenylpropanoic acid]
50 to 500 | CNc1cc2[nH]c(=O)n(-c3ccc(C(=O)NC(c4nnn[nH]4)c4ccc(Cl)s4)cc3OC)c(=O)c2cc1F (stereo not shown) [Compound 52, N-((5-chlorothiophen-2-yl)(1H-tetrazol-5-yl)methyl)-4-(6-fluoro-7-(methylamino)-2,4-dioxo-1,2-dihydroquinazolin-3(4H)-yl)-3-methoxybenzamide]
50 to 500 | O=C(Nc1ccc(-n2c(=O)[nH]c3cc(NCc4ccc(F)cc4)ccc3c2=O)cc1)NC(Cc1cccs1)C(=O)O (stereo not shown) [Compound 109, 2-(3-(4-(7-(4-fluorobenzylamino)-2,4-dioxo-1,2-dihydroquinazolin-3(4H)-yl)phenyl)ureido)-3-(thiophen-2-yl)propanoic acid]
